# Data published in US7488568B2, “Resist composition, method of forming resist pattern, compound and acid generator” (Tokyo Ohka Kogyo Co., Ltd., priority 2008, dated 2009).
# Test: Evaluation of solubility of acid generators in resist solvents (concentration at which completely dissolved)
# Type: physicochemical
# Conditions: for Solubility in EL (% by weight): ethyl lactate; for Solubility in PGME (% by weight): propylene glycol monomethyl ether; for Solubility in PGMEA (% by weight): propylene glycol monomethyl ether acetate
# Method: With respect to each of the compounds, propylene glycol monomethyl ether acetate (PGMEA) solutions, propylene glycol monomethyl ether (PGME) solutions and ethyl lactate (EL) solutions of various concentrations were prepared. The prepared solutions were stirred to evaluate the concentration at which the acid generator was completely dissolved.
# [1] = Table 1, concentration at which completely dissolved
Solubility in EL (% by weight) (Table 8),Solubility in PGME (% by weight) (Table 8),Solubility in PGMEA (% by weight) (Table 8),Solubility in EL (% by weight) (Table 1),Solubility in PGMEA (% by weight) (Table 1),Solubility in PGME (% by weight) [1],SMILES
5.0,5.0 % by weight,<2.0 % by weight,–,–,–,c1ccc([S+](c2cccc3ccccc23)c2cccc3ccccc23)cc1 [(1)]
–,–,–,20 % by weight,20 % by weight,10-15 % by weight,"c1ccc(-[s+]2c3ccccc3c3ccccc32)cc1 [(b1-01), phenyldibenzothiophenium nonafluorobutane sulfonate]"
–,–,–,5 % by weight,5 % by weight,<2 % by weight,"c1ccc([S+](c2cccc3ccccc23)c2cccc3ccccc23)cc1 [(b′-01), di(1-naphthyl)phenylsulfonium nonafluorobutane sulfonate]"
>30,>30 % by weight,>30 % by weight,–,–,–,Cc1cc(-[s+]2c3ccccc3c3ccccc32)cc(C)c1OCOC1CCCCC1 [b1-100]

# The remaining lines, values behind:
SMILES,Solubility in EL (% by weight) (Table 8),Solubility in PGME (% by weight) (Table 8),Solubility in PGMEA (% by weight) (Table 8),Solubility in EL (% by weight) (Table 1),Solubility in PGMEA (% by weight) (Table 1),Solubility in PGME (% by weight) [1]
c1ccc(-[s+]2c3ccccc3c3ccccc32)cc1 [(2)],20.0,20.0 % by weight,10~15 % by weight,–,–,–
Cc1cc(-[s+]2c3ccccc3c3ccccc32)cc(C)c1O [Compound (b1-51)],–,10~15 % by weight,–,10-15 % by weight,10-15 % by weight,<2 % by weight
Cc1cc(-[s+]2c3ccccc3c3ccccc32)cc(C)c1OC(=O)OC(C)(C)C [Compound (b1-81)],–,–,–,20 % by weight,20 % by weight,10 % by weight
